Assay results: BindingDB's records for patent WO2022103411 (Genentech, 2022)

The compounds below were run against T1, von Hippel-Lindau disease tumor suppressor (Homo sapiens, UniProt P40337) (assay: VHL HEK-293 BRET Assay).
T1 sequence (P40337 whole entry): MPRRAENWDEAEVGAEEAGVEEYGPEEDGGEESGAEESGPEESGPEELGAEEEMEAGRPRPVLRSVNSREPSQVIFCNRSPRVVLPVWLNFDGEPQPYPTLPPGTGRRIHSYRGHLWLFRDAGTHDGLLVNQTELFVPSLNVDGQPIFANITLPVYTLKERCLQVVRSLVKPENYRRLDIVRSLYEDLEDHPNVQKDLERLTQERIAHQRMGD
Description: The VHL NanoBRET Target Engagement Assay analyzes the apparent affinity of test compounds for VHL in cells by competitive displacement of a VHL NanoBRET tracer reversibly bound to a NanoLuc VHL fusion protein stably expressed in the cells. […] 50 nL of control compound (lOmM; parental unlabeled VHL antagonist; see structure below) and 50 nL of DMSO (negative control) were dispensed into the appropriate control wells. DMSO was backfilled to a final volume of 50 nL as required. […] Max Signal control wells consisted of DMSO only treated wells. Minimum Signal control wells contained of 10 uM parental unlabeled VHL antagonist (control compound - see structure below). […] Background Signal control wells were prepared without tracer for background correction steps. […] The raw BRET ratio values were calculated by dividing the acceptor emission value (610 nm) by the donor emission value (460nm) for each sample. To correct for background, the BRET ratio in the absence of tracer (average of no-tracer control samples) was subtracted from the BRET ratio of each sample. Raw BRET units were converted to milliBRET units (mBU) by multiplying each raw BRET value by 1,000. The normalized NanoBRET signal was calculated relative to the Max Signal control wells (DMSO treated control wells) and the Minimum Signal control wells. Percentage inhibition was calculated relative to the Minimum Signal control and Maximum Signal control wells. IC50 values were derived by four parameter curve fitting using the Robust method.

Point of comparison: `Cc1ncsc1-c1ccc2c(c1)CCCC[C@H]2NC(=O)[C@@H]1C[C@@H](O)CN1C(=O)[C@@H](n1cc(C2CC2)nn1)C(C)(C)C` [WO2022103411, Compound 53], IC50 200 nM. Against it:
- CCC(C)[C@@H](C(=O)N1C[C@H](O)CC1C(=O)N[C@H](Cc1ccc(-c2ccccc2)cc1)C(N)=O)n1cc(C2CC2)nn1 (stereo not given in full) [WO2022103411, Example S5] — 1.5-fold lower, 130 nM
- Cc1ncsc1-c1ccc(CNC(=O)[C@@H]2C[C@@H](O)CN2C(=O)[C@@H](n2cc(Cc3ccccc3)nn2)C(C)(C)C)cc1 [WO2022103411, Example S27] — 10-fold lower, 20 nM
- C=CC(C)(C)[C@@H](C(=O)N1C[C@H](O)CC1C(=O)N[C@H](Cc1ccc(-c2ccccc2)cc1)C(N)=O)n1cc(C2CC2)nn1 (stereo not given in full) [WO2022103411, Example S7] — 1.8-fold lower, 110 nM
- Cc1ncsc1-c1ccc(CNC(=O)[C@@H]2C[C@@H](O)CN2C(=O)[C@H](C2CCCCC2)n2cc(C3CC3)nn2)cc1 [WO2022103411, Example S25] — lower, < 5 nM
- Cc1ncsc1-c1ccc2c(c1)CCCC[C@@H]2NC(=O)[C@@H]1C[C@@H](O)CN1C(=O)[C@@H](n1cc(C2CC2)nn1)C(C)(C)C [WO2022103411, Compound 52] — lower, < 5 nM
- COC(=O)c1nnn([C@@H](C(=O)N2C[C@H](O)C[C@H]2C(=O)N[C@H](Cc2ccc(-c3ccccc3)cc2)C(N)=O)C(C)C)c1C [WO2022103411, Compound 35] — 8.1-fold higher, 1620 nM
- CC(C)(C)[C@@H](C(=O)N1C[C@H](O)CC1C(=O)N[C@H](Cc1ccc(-c2ccccc2)cc1)C(N)=O)n1cc(C2CC2)nn1 (stereo not given in full) [WO2022103411, Example S3] — within 1.5-fold, 150 nM
- CCC(C)(C)[C@@H](C(=O)N1C[C@H](O)CC1C(=O)N[C@H](Cc1ccc(-c2ccccc2)cc1)C(N)=O)n1cc(C2CC2)nn1 (stereo not given in full) [WO2022103411, Example S6] — 2-fold lower, 100 nM
- CC(C)[C@@H](C(=O)N1C[C@H](O)C[C@H]1C(=O)N[C@H](Cc1ccc(-c2ccccc2)cc1)C(N)=O)n1nnc2ccccc21 [WO2022103411, Compound 38] — 1.5-fold higher, 300 nM
- Cc1ncsc1-c1ccc(C(C)NC(=O)C2C[C@@H](O)CN2C(=O)[C@H](C2C3CC4CC(C3)CC2C4)n2cc(C3CC3)nn2)c(Cl)c1 (stereo not given in full) [WO2022103411, Example S23] — 10-fold lower, 20 nM
- CCC(C)(C)[C@@H](C(=O)N1C[C@H](O)C[C@H]1C(=O)N[C@@H](C)c1ccc(-c2scnc2C)cc1)n1cc(C2CC2)nn1 [WO2022103411, Example S21] — lower, < 5 nM
- CC(=O)NCCOCc1cn([C@H](C(=O)N2C[C@H](O)CC2C(=O)N[C@H](Cc2ccc(-c3ccccc3)cc2)C(N)=O)C(C)(C)C)nn1 (stereo not given in full) [WO2022103411, Example S14] — 100-fold higher, 20700 nM
- Cc1ncsc1-c1ccc(CNC(=O)C2C[C@H](O)CN2C(=O)[C@@H](n2cc(C3(c4cn([C@H](C(=O)N5C[C@H](O)C[C@H]5C(=O)NCc5ccc(-c6scnc6C)cc5)C(C)(C)C)nn4)CC3)nn2)C(C)(C)C)cc1 (stereo not given in full) [WO2022103411, Compound 31] — 1.6-fold higher, 310 nM
- Cc1ncsc1-c1ccc(CNC(=O)[C@@H]2C[C@@H](O)CN2C(=O)[C@@H](n2cc(C3CC3)nn2)C(C)(C)C)cc1 [WO2022103411, Example S24] — 20-fold lower, 10 nM
- Cc1ncsc1-c1ccc([C@H](C)NC(=O)C2C[C@@H](O)CN2C(=O)[C@H](C2C3CC4CC(C3)CC2C4)n2cc(C3CC3)nn2)cc1 (stereo not given in full) [WO2022103411, Example S20] — lower, < 5 nM
- COC(=O)c1nnn([C@H](C(=O)N2C[C@H](O)C[C@H]2C(=O)N[C@H](Cc2ccc(-c3ccccc3)cc2)C(N)=O)C(C)C)c1C [WO2022103411, Compound 34] — 31-fold higher, 6250 nM
- NC(=O)[C@@H](Cc1ccc(-c2ccccc2)cc1)NC(=O)C1C[C@@H](O)CN1C(=O)[C@H](C1CCC1)n1cc(C2CC2)nn1 (stereo not given in full) [WO2022103411, Example S4] — within 1.5-fold, 190 nM

The compounds below were run against T1, von Hippel-Lindau disease tumor suppressor (assay: Fluorescence Polarization (FP) VHL Binding Assay).
Description: The binding of test compounds to the VHL Elongin B/C complex was measured using a fluorescence polarization tracer competition assay. […] A VHL fluorescence polarization probe consisted of a VHL ligand coupled to carboxytetramethylrhodamine (TAMRA); (2S,4R)-N-(2-(2-(3',6'-bis(dimethylamino)-3-oxo-3H-spiro[isobenzofuran-l,9'-xanthene]-5-carboxamido)ethoxy)-4-(4-methylthiazol-5-yl)benzyl)-4-hydroxy-l-((R)-3-methyl-2-(3-methylisoxazol-5-yl)butanoyl)pyrrolidine-2-carboxamide. […] DMSO was dispensed into wells designated for “VHL control” (without compound) wells. The “Assay Buffer” consisted of 50 mM Tris pH 8.0, 120 mM NaCl, 0.005% Nonidet P-40, and 1% DMSO (v/v). […] Assay Buffer was also dispensed into “no VHL control” wells using the same method. […] “Post-assay” fluorescence polarization measurements were made as described for the “pre-assay” fluorescence measurement. Fluorescence polarization was calculated for each sample; taking into account the “pre-assay” fluorescence measurements and subtracting the fluorescence signal of the compound/VHL only (“pre-assay”) measurements from the “post-assay” fluorescence polarization measurements, for each plane of polarization. The data were analyzed using Genedata Screener software and normalized to the “no VHL control” and “VHL control” (without compound). IC50 values were calculated using a four parameter curve fit (Robust method).

Point of comparison: `CC(C)(C)[C@@H](C(=O)N1C[C@H](O)CC1C(=O)N[C@H](Cc1ccc(-c2ccccc2)cc1)C(N)=O)n1cc(C2CC2)nn1` (stereo not given in full) [WO2022103411, Example S3], IC50 150 nM. Against it:
- CC(=O)NCCOCc1cn([C@H](C(=O)N2C[C@H](O)CC2C(=O)N[C@H](Cc2ccc(-c3ccccc3)cc2)C(N)=O)C(C)(C)C)nn1 (stereo not given in full) [WO2022103411, Example S14] — 1.9-fold lower, 80 nM
